These results are taken from patent US11510886B2, “Metformin amino acid compounds and methods of using the same” (Laboratorios Silancs S.A. DE C.V., priority 2016, dated 2022).

In general, AUC(0-t) refers to exposure summed from dosing to a finite time, without extrapolation to infinity. One may read the Cmax as the highest concentration seen after dosing. As a reminder, the Tmax is the time from dosing to the highest level.

One data set concerns L1 adipocytes. The data set is described as follows: Inflammation markers in L1 adipocytes treated with palmitate (RT-qPCR). The note with it: palmitate 500 μM, 10 mM, 24 hours (FIG. 79). Type of data set: cell-based, Mice. The procedure: FIG. 79. […] Differentiated L1 adipocytes (cells) were treated for 24 hours with palmitate (500 μM), either in the presence or in the absence of SLN1 or SLN10 (10 mM). Subsequently, the relative expression of inflammation markers was analyzed by RT and qPCR, using HPRT-1 as a normalizer and as a reference for expression levels of non-treated cells (MCP-1 and IL-12), and for those treated only with palmitate (proIL-1β, TNFα, iNOS, IL-6). Briefly, once finished, culture media treatments were collected for subsequent analysis, cells were washed with PBS, and RNA was extracted (illustra RNAspin Mini, GE Healthcare) and retro-transcribed (High Capacity cDNA Reverse Transcription Kit, Life Technologies); then, the genes under study were analyzed by using a quantitative PCR with specific probes (TaqMan® Gene Expression Assays, Life Technologies), estimating the relative quantification (RQ) with the ΔΔ Ct method.
Palmitate is a saturated fatty acid that simulates an experimental obese state. It can be used as a pro-inflammatory stimulant for cytokines such as proIL-1β, TNFα, INOS, IL-6, MCP-1, and IL-12. Adipocytes cultured in the absence or presence of palmitate were treated with SLN1 or SLN10, and the expression of inflammation markers was determined by quantitative RT-PCR (FIG. 79).
(In qPCR the cycle at which signal appears reflects the starting amount.)

The test system of the next data set is GPBP. Put plainly: GPBP Western blot of treated A549 cells. It counts as cell-based. The settings on record: 10 mM, 3 hours. The procedure:
After the incubation time, cells were washed twice with PBS and lysed in 25 mM Tris-HCl, pH 7.4, 140 mM NaCl, 3 mM KCl, 20 mM NaF, 1 mM PMSF, 10 μg/mL leupeptin, 1% Triton X-100 for 20 min at 4° C. The lysates were centrifuged at 20,000×g for 10 min at 4° C., supernatants were recovered, and protein concentration determined
Equal amounts of each lysate (40 μg) were analyzed by Western blot, with monoclonal antibodies against GPBP N27 (Fibrostatin SL) and against tubulin (Sigma). Electrophoresis was performed in polyacrylamide gel (6.5%) with SDS, after which electroblotting was carried out to PVDF membrane (Immobilon P, Millipore Merck). After transfer, the membranes were blocked in 5% skim milk in 25 mM Tris-HCl, pH 7.5, 150 mM NaCl, 0.05% Tween-20 (TBST) for 45 min, and then incubated with primary antibodies diluted in blocking solution for 16 hours at 4° C. Thereafter, the membranes were washed with TBST (3×5 minutes) and incubated with secondary antibodies against mouse IgG, conjugated to horseradish peroxidase (HRP) (Sigma) for 1 hours at room temperature while stirring. After further washes with TBST (3×5 minutes), the chemiluminescence disclosure was performed by using the ECL Prime reagent (GE Healthcare) and the image generation system ImageQuant LAS 4000 Mini (GE Healthcare).
The Western blots disclosure images were analyzed with the ImageJ WCIF program.
On the technique in general: Immunoblotting shows a protein as a band on a membrane.

The nature of the next data set: in vivo. The settings on record: female, Sprague Dawley, rat, plasma, po, 250 mg/kg.

Entries after “also recorded” stand apart in the source; their conditions may differ. Counter-ions that a name gives are not always drawn.

Turning to metformin lysinate, the “attenuation of inflammatory response of adipocytes stimulated with palmitate” value with L1 adipocytes was “much more effective”. The “GPBP polypeptides reactive with N27” value is “more abundant in culture extracts treated with SLN10; also recorded: shifts to positions of less molecular weight” with GPBP (pH 7.5, listed as SLN10) and “shifts to positions of less molecular weight” in the data set on GPBP (pH 9.3).
`CN(C)C(=N)N=C(N)N` [Metformin hydrochloride, metformin hydrochloride, reference compound]: in “in vivo”, the area under the curve AUC(0-t) stood at 82000 ng·h/mL, the Cmax was determined as 16300 ng/mL, the time to peak (Tmax) came out at 30 min and the concentration at 0.5 h came to 16300 ± 5100 ng/mL. Further, in the data set “in vivo”, the concentration at 1 h came out at 14800 ± 5070 ng/mL, the concentration at 2 h came to 11900 ± 3240 ng/mL, the concentration at 4 h was 6830 ± 1650 ng/mL and the concentration at 8 h is 3140 ± 1050 ng/mL. Further, in the data set “in vivo”, the concentration at 24 h stood at 190 ± 100 ng/mL.
